From article PMC9869559, “The Weimberg pathway: an alternative for Myceliophthora thermophila to utilize D-xylose” (Biotechnology for Biofuels and Bioproducts, 2023)

How the values were obtained:
[1] = molecular target: T1, Trxyd1 (D-xylose dehydrogenase, XDH) (Trichoderma reesei, UniProt G0R8G7); experiment: NAD+ or NADP+ reduction at […] nm, crude mycelial extract of overexpressing strain; assay type: biochemical; conditions: 100 mM D-xylose, 2 mM NAD+ or NADP+, 2 mM MgCl2, 100 mM Tris-HCl pH 8.0, 30 °C
T1 construct: gene TRIREDRAFT_53673; full-length gene from cDNA, inserted at pck locus of M. thermophila JG207 delta-Mtxyl1 (DF1309); crude mycelial extract
T1 sequence (G0R8G7 1-391): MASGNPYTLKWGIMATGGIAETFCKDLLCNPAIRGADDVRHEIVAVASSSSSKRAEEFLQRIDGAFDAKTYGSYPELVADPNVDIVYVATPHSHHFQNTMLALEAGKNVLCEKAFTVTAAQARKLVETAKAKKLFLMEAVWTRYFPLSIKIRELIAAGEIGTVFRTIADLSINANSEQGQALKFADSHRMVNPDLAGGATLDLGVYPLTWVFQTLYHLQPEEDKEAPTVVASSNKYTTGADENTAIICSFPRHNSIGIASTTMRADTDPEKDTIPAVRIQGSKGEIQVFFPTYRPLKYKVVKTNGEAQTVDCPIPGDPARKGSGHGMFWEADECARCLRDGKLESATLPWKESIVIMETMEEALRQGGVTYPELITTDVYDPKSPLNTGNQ

[2] = molecular target: T2, Mtxyd1 (native D-xylose dehydrogenase, XDH) (Thermothelomyces thermophilus, UniProt G2QN15); experiment: NADP+ reduction at […] nm, crude mycelial extract of overexpressing strain; assay type: biochemical; conditions: 100 mM D-xylose, 2 mM NADP+, 2 mM MgCl2, 100 mM Tris-HCl pH 8.0, 30 °C
T2 construct: gene MYCTH_112471; full-length native gene from cDNA, inserted at pck locus of M. thermophila JG207 delta-Mtxyl1 (DF1310); crude mycelial extract
T2 sequence (G2QN15 1-395): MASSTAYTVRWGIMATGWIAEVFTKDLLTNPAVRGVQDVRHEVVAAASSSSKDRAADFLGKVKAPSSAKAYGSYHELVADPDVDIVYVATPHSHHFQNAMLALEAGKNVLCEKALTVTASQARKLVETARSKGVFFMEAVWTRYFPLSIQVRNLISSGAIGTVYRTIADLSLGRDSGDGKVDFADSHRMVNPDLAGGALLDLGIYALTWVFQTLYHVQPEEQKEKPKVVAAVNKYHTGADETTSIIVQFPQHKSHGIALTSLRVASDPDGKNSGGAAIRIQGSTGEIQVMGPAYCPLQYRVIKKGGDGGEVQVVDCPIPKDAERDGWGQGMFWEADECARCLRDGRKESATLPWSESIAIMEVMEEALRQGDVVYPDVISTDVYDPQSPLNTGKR

Row | Structure (SMILES) | specific activity [1] | specific activity [2]
1 | OC1OC[C@@H](O)[C@H](O)[C@H]1O (stereo partly drawn) [D-xylose] | The enzymatic activity of XDH in strains DF1309 and DF1310 was verified | XDH encoded by endogenous Mtxyd1 owned the highest activity
2 | NC(=O)c1ccc[n+]([C@@H]2O[C@H](COP(=O)(O)OP(=O)(O)OC[C@H]3O[C@@H](n4cnc5c(N)ncnc54)[C@H](OP(=O)(O)O)[C@@H]3O)[C@@H](O)[C@H]2O)c1 [NADP^+] | – | When using NADP^+ as a cofactor, XDH encoded by endogenous Mtxyd1 owned the highest activity
